Read-outs that look alike come from different tables or passages of the source.
Assays:
[1] = tested on: LTB4 synthesis by rat glycogen-elicited polymorphonuclear leukocytes (PMN); experiment: inhibition of LTB4 synthesis by rat glycogen-elicited polymorphonuclear leukocytes (PMN); format: cell-based, rat (female Wistar); settings: Leukocyte
Text: This is especially true with respect to 5,12-diHETE, which is also denoted as LTB4 [see Ford-Hitchinson, J. Roy. […] Med., 74, 831 (1981)]. Compounds which inhibit the PLA2 -mediated release of arachidonic acid thereby effectively prevent the oxidation of arachidonic acid to the various leukotriene products via the lipoxygenase cascade. Accordingly, the specificity of action of PLA2 inhibitors can be determined by the activity of test compounds in this assay, which measures the ability of compounds to inhibit the synthesis of LTB4 by rat glycogen-elicited polymorphonuclear leukocytes (PMN) in the presence of exogenous substrate.
The assay is carried out as follows:
(§1) Rat polymorphonuclear leukocytes (PMNs) are obtained from female Wistar rats (150-200 g) which receive an injection of 6% glycogen (10 ml i.p.). Rats are sacrificed 18-24 hours post injection by CO2 asphyxiation and the elicited cells are harvested by peritoneal lavage using physiological saline (0.9% NaCl). The exudate is centrifuged at 400 xg for 10 minutes. The supernatant fluid is discarded and the cell pellet is resuspended to a concentration of 2.0×10^7 cells/mL in HBSS containing Ca^++ and Mg^++ and 10 μM L-cysteine.
(§2) To 1 mL aliquots of cell suspension, test drugs or vehicle are added, then preincubated at 37° C. for 10 minutes. A23187 (1 μM), [^3 H]-AA (3.0 μCi/mL) and unlabeled AA (1 μM) are then added and the samples are further incubated for 10 minutes. The reaction is terminated by centrifugation and pelleting cells. Supernatants are then analyzed by HPLC analysis on a 15 cm×4.6 mm ID supelcosil LC-18 (Supelco)(3M) column, using a two solvent system at a flow rate of 1.4 mL total flow as follows:
Gradient: (system is equilibrated with Solvent A)
Percent solvent changes are accomplished in a linear fashion.
Injections: 140 μL of each supernatant is injected directly onto column and ^3 H arachidonic acid metabolites are monitored using an on-line radioactivity detector (Ramona, IN/US, Fairfield, N.J.).
Standards: 10^4 -2.0×10^4 dpm of eicosanoids of interest are injected in 90 μL EtOH cocktail.
Results are expressed as percent inhibition at a given compound dose or as an IC50 value.

[2] = tested on: TxB2; experiment: reverse passive Arthus pleurisy assay, TxB2; format: in vivo, rat (male Lewis); settings: for ED50 TxB2 / ED50: 5 min; for ED50: Rattus norvegicus, po, read-out: ED50 TxB2
Description: (§3) The compounds of the invention are further tested in the reverse passive Arthus pleurisy assay to evaluate their effectiveness in inflammatory mediator release and/or the fluid and cellular phases of an inflammatory response.
(§4) A reverse passive Arthus reaction is induced in the pleural cavity of male Lewis rats (150-200 g; fasted overnight prior to use) by the intravenous administration of bovine serum albumin (BSA; 4 mg/0.2 ml) followed by 30 minutes later by the injection of rabbit anti-BSA (1 mg/0.2 ml; lyophilized IgG fraction; Organon Teknika, West Chester, Pa.) into the right pleural space under halothane anesthesia. Drugs or vehicle (0.5% Tween-80) control are administered orally in a volume of 1 ml/100 g body weight at 1 hour prior to the anti-BSA. Animals are sacrificed at either the time of peak eicosanoid production (i.e. 5 minutes after anti-BSA for immunoreactive TxB2 10 minutes for immunoreactive LTB4, 20 minutes for immunoreactive LTC4) or at the time of peak neutrophil infiltration (4 hours after anti-BSA) by CO2 inhalation. The pleural cavity is then exposed, the fluid exudate removed by gentle vacuum aspiration and the volume of exudate is recorded. For the determination of cellular infiltration, the pleural cavity is rinsed with 3 ml of 0.1% EDTA in sterile saline, and the recovered wash is pooled with the exudate. Cell number is determined on a model ZBI Coulter counter. For determination of eicosanoid production, undiluted pleural exudate is microfuged and the supernatant is extracted with ethanol (8-10 times volume). Extracts are either stored at -20° C., or are evaporated to dryness under a stream of N2 and reconstituted in radioimmunoassay (RIA) buffer.
(§5) Eicosanoids are quantitated by RIA according to the procedure specified by the RIA kit manufacturer (Advanced Magnetics, Cambridge, Mass.). Briefly, 100 μl of ^3 H-labeled eicosanoid and 100 μl of specific antibody are sequentially added to 100 μl of extracted pleural exudate in BGG -phosphate buffer which contains 0.01M phosphate, 0.1% bovine gamma globulin and 0.1% sodium azide at pH 7.0. Antibody-bound eicosanoid is separated from unbound eicosanoid by the addition of 750 μl of dextran (0.4%)-coated charcoal (0.4% Norit A) containing 0.1% sodium azide. The mixture is centrifuged at 2000 RPM at 5° C. for 15 minutes to pellet the charcoal and adsorbed unbound eicosanoid. Antibody-bound labeled eicosanoid is quantitated by counting in a liquid scintillation counter, and is correlated to concentration by a standard curve.
(§6) Inflammatory cells are expressed as 10^6 cells/ml, pleural exudate is expressed as ml of fluid, and the amount of eicosanoids in the pleural cavity is expressed as ng/ml of exudate. Mean±S.E.M. is determined for each group. Percent inhibition (% I) of cell number, exudate volume and eicosanoid production is calculated for vehicle-treated control groups, and the responses in drug-treated rats are then expressed as the mean % I of the control. […] Exp. Ther., 96, 99-113 (1949).

[3] = tested on: Fluid Exudation; experiment: reverse passive Arthus pleurisy assay, fluid exudation; format: in vivo, rat (male Lewis); settings: 1 hour prior to anti-BSA, standard drugs; for ED30 Fluid Exudation: p.o.; for ED30: Rattus norvegicus, po
Description: as §3, §4, §6

[4] = tested on: LTB4; experiment: reverse passive Arthus pleurisy assay, LTB4; format: in vivo, rat (male Lewis); settings: for ED50: Rattus norvegicus
Description: as §3, §4, §5, §6

[5] = tested on: PGE2 synthesis by rat glycogen-elicited polymorphonuclear leukocytes (cyclooxygenase); experiment: inhibition of PGE2 (cyclooxygenase product) synthesis by rat glycogen-elicited polymorphonuclear leukocytes; format: cell-based, rat (female Wistar); settings: Leukocyte; for inhibition at 0.5 µM: read-out: % Inhibition (PGE2 synthesis)
Description: as §1, §2
In this assay, the procedure of Example 14 is carried out as described. However, in order to determine cyclooxygenase activity, the samples are cochromatographed with authentic reference [^3 H]-PGE2.

[6] = tested on: Cellular Influx; experiment: reverse passive Arthus pleurisy assay, cellular influx; format: in vivo, rat (male Lewis); settings: Rattus norvegicus, po, 4 h, 1 hour prior to anti-BSA; standard drugs
Description: as §3, §4, §6

[7] = p.o., 1 hour prior to anti-BSA, standard drugs
[8] = at 0.5 μM, negative values denote potentiation of cyclooxygenase
[9] = negative values denote potentiation of cyclooxygenase

Cn1c(COc2ccc(-c3nc(CCC(=O)O)oc3-c3ccccc3)cc2)nc2ccccc21 [Example 7, 4-[4-[(1-Methyl-1H-benzimidazol-2-yl)methoxy]phenyl]-5-phenyl-2-oxazole propanoic acid]
inhibition at 10 µM [1]: 85%

COc1ccc2cc([C@H](C)C(=O)O)ccc2c1 [Naproxen]
ED50 TxB2 [2, 7]: 0.24 mg/kg p.o. | ED30 Fluid Exudation [3]: 3.9 mg/kg p.o. | % Inh LTB4 ([4]; 4 mg/kg p.o.): 0%

O=C(O)Cc1ccc(-c2ccc(OCc3ccc4ccccc4n3)cc2)c(F)c1 [Example 2, 2-Fluoro-4'-(2-quinolinylmethyoxy)-[1,1'-biphenyl]-4-acetic acid]
inhibition at 0.5 µM [5]: -22% | inhibition at 0.5 µM [1]: 91%

CC(=O)c1ccc(-c2ccc(OCc3ccc4ccccc4n3)cc2)c([N+](=O)[O-])c1 [Example 1, 1-[2-Nitro-4'-(2-quinolinylmethoxy)-[1,1'-biphenyl]4-yl]ethanone]
inhibition at 0.5 µM [5, 8]: -13% | inhibition at 0.5 µM [1]: 95%

CN1C(C(=O)Nc2ccccn2)=C(O)c2ccccc2S1(=O)=O [Piroxicam]
ED30 [6]: 3 mg/kg | ED30 [3]: 1 mg/kg

COC(=O)CCc1nc(-c2ccc(OCc3ccc4ccccc4c3)cc2)c(-c2ccccc2)o1 [Example 6A, 4-[4-[2-Naphthalenylmethoxy]phenyl]-5-phenyl-2-oxazole propanoic acid methylester]
inhibition at 0.5 µM [5, 8]: -29% | inhibition at 10 µM [5, 9]: -79% | inhibition at 0.5 µM [1]: 63% | inhibition at 10 µM [1]: 94%

O=C1CCN(c2ccccc2)N1 [Phenidone]
ED30 [6]: 23 mg/kg | ED50 [2, 7]: 69 mg/kg | ED30 [3]: 21 mg/kg | ED50 ([4]; po, 1 hour prior to anti-BSA, standard drugs, read-out: ED50 LTB4): 10 mg/kg

C[C@@H]1C[C@H]2[C@@H]3CCC4=CC(=O)C=C[C@]4(C)[C@@]3(F)[C@@H](O)C[C@]2(C)[C@@]1(O)C(=O)CO [Dexamethasone]
ED30 [6]: 0.13 mg/kg | ED30 Fluid Exudation [3]: 0.05 mg/kg p.o.

C[C@H](C(=O)O)c1ccc2cc(OCc3ccc4ccccc4n3)ccc2c1.NC(CO)(CO)CO [Wy-50,295-A]
% Inh TxB2 ([2]; 75 mg/kg p.o.): 0%

O=C(O)Cc1ccc(-c2ccc(OCc3ccc4ccccc4n3)cc2)c(F)c1 [Example 9, 2-Fluoro-4'-(2-quinolinylmethoxy)[1,1'-biphenyl]-4-acetic acid, 2-amino-2-hydroxymethyl-1,3-propane diol]
ED50 ([4]; reverse passive Arthus pleurisy, oral, read-out: ED50 (LTB4 Synthesis)): 0.8 mg/kg

O=C(O)CCc1nc(-c2ccc(OCc3ccc4ccccc4c3)cc2)c(-c2ccccc2)o1 [Example 6, 4-[4-[2-Naphthalenylmethoxy]phenyl]-5-phenyl-2-oxazole propanoic acid]
inhibition at 10 µM [5, 9]: -191% | inhibition at 0.5 µM [5]: -12% | inhibition at 0.5 µM [1]: 81% | inhibition at 10 µM [1]: 95%

O=C(O)Cc1ccccc1Nc1c(Cl)cccc1Cl [Diclofenac]
ED50 [2]: 6 mg/kg

CN=C1CCN(c2cccc(C(F)(F)F)c2)N1 [BW540C]
ED50 TxB2 [2, 7]: 19 mg/kg p.o. | ED50 LTB4 [4, 7]: 30 mg/kg p.o.

Source: patent publication US5071988A, “Substituted benzoylbenzene-, biphenyl- and 2-oxazole-alkanoic acid derivatives” (American Home Products Corporation, priority 1991, dated 1991)
